Where two headings read alike, the source gives them in different places.
How the values were obtained:
SARS-CoV-2 [1] = experiment: microbe, parasite or virus in culture; conditions: Severe acute respiratory syndrome coronavirus 2, Vero C1008, 48 h, read-out: IC50 (virus inhibition, high-content imaging/IFA)
in vitro [2] = assay type: cell-based
Procedure: (§1) Cells were seeded on 96-well plates at 5 × 10^4 cells/well and treated with various concentrations of the extracts or purified compounds for 48 h. Cell viability was evaluated by an MTT colorimetric assay. In brief, the medium was replaced with MTT [3-(4,5-dimethylthiazol-2-yl)-2,5-diphenyltetrazolium bromide] (Sigma-Aldrich, USA) and incubated for 4 h at 37 °C in a humidified incubator with 5% CO2. The formazan crystal was dissolved with DMSO (Merck, Germany) and measured at a wavelength of 570 nm by EnVision Multilabel Reader (PerkinElmer, USA). Data was normalized versus the solvent control, and then CC50 values were calculated using GraphPad Prism 7.

SARS-CoV-2 [3] = experiment: microbe, parasite or virus in culture; assay type: cell-based; conditions: for IC50: read-out: IC50 (plaque reduction assay); for concentration with absolute inhibition of the infectious virion production: post-treatment approach, Vero E6, plaque assay
SARS-CoV-2 [4] = experiment: microbe, parasite or virus in culture; assay type: cell-based; conditions: for %Inhibition at 10 µM: purified compounds
SARS-CoV-2 [5] = conditions: pre-entry, Vero E6
SARS-CoV-2 [6] = conditions: for SI (CC50/IC50): post-infection, Vero E6
SARS-CoV-2 [7] = experiment: microbe, parasite or virus in culture; conditions: Severe acute respiratory syndrome coronavirus 2, Vero C1008, read-out: IC50 (virus inhibition, high-content imaging)
SARS-CoV-2 [8] = experiment: microbe, parasite or virus in culture; assay type: cell-based; conditions: Vero E6
SARS-CoV-2 [9] = experiment: microbe, parasite or virus in culture; assay type: cell-based
[10] = system: HepG2, imHC, HK-2, SH-SY5Y, Caco-2; experiment: Cell viability assay (MTT) in various human cell types; assay type: cell-based; conditions: 0 - 100 µM, 48 h
[11] = Cell viability assay (MTT) in Calu-3 cells; conditions: human
SARS-CoV-2 [12] = experiment: Plaque reduction assay of viral output, pre-entry treatment, Vero E6 cells; assay type: cell-based
SARS-CoV-2 [13] = experiment: microbe, parasite or virus in culture; assay type: cell-based; remark: listed apart in the source
in vitro [14] = conditions: human
Vero E6 cells = experiment: in vitro; assay type: cell-based; conditions: Vero E6, post-infection treatment setting, 48 h
Procedure: as §1

[15] = Vero E6, post-infection treatment setting, 48 h, read-out: CC50
[16] = Severe acute respiratory syndrome coronavirus 2, Vero C1008, 48 h
[17] = Severe acute respiratory syndrome coronavirus 2, Vero C1008, post-infection treatment, Vero E6, 48 h
[18] = Severe acute respiratory syndrome coronavirus 2, Vero C1008, purified compounds, single dose 10 µM, Vero E6, SARS-CoV-2 25TCID50, read-out: %Inhibition at 10 µM
[19] = single dose 10 µM, Vero E6, SARS-CoV-2 25TCID50
[20] = Vero E6, pre-entry treatment setting, read-out: CC50

CCCCC[C@H](O)CC(=O)CCc1ccc(O)c(OC)c1 [6-Gingerol]
IC50 (SARS-CoV-2 [1]): > 100 µM
CC50 at 48 h (in vitro [2]; [15]): > 100 µM
IC50 (SARS-CoV-2 [3]; [16]): 1.38 µM
inhibition at 10 µM (SARS-CoV-2 [4]; Severe acute respiratory syndrome coronavirus 2, Vero C1008, read-out: %Inhibition at 10 µM): 7.78%
inhibitory activity against SARS-CoV-2 infection (in words) (SARS-CoV-2 [4]; extract at 10 µg/mL, compound at 10 µM): mild effect

C=C1CC[C@@H]2[C@](C)(CO)[C@H](O)CC[C@@]2(C)[C@@H]1C/C=C1/C(=O)OC[C@H]1O [Andrographolide]
IC50 (SARS-CoV-2 [1]): 6.58 µM
CC50 at 48 h (in vitro [2]; African green monkey, CC50): 27.8 µM
IC50 (SARS-CoV-2 [3]; [17]): 0.28 µM
concentration with absolute inhibition of the infectious virion production (SARS-CoV-2 [3]): 12.5 µM
inhibition at 10 µM (SARS-CoV-2 [4]; [18]): 99.9%
%Inhibition at 10 µM (SARS-CoV-2 [4]; single dose 10 µM, Vero E6, SARS-CoV-2 25TCID50, listed as ECDD-NAD): 99.97%

CCCCCCC[C@H](O)CC(=O)CCc1ccc(O)c(OC)c1 [ECDD-DPM-N95, 8-Gingerol]
%Inhibition at 10 µM (SARS-CoV-2 [4]; [19]): 17.59%

CCCCCCCCC[C@H](O)CC(=O)CCc1ccc(O)c(OC)c1 [ECDD-DPM-N96, 10-Gingerol]
%Inhibition at 10 µM (SARS-CoV-2 [4]; [19]): 23.51%

CCCCC/C=C/C(=O)CCc1ccc(O)c(OC)c1 [ECDD-DPM-N97, 6-Shogaol]
%Inhibition at 10 µM (SARS-CoV-2 [4]; [19]): 12.17%

COc1c(O)cc2oc3cc(O)c(CC=C(C)C)c(O)c3c(=O)c2c1CC=C(C)C [ECDD-NAM, alpha-mangostin]
%Inhibition at 10 µM (SARS-CoV-2 [4]; [19]): 9.08%

CCN(CCO)CCCC(C)Nc1ccnc2cc(Cl)ccc12 (stereo not shown) [Hydroxychloroquine, reference compound]
SI (CC50/IC50) (SARS-CoV-2 [5]): > 12.39
IC50 (SARS-CoV-2 [1]): 5.08 µM
SI (CC50/IC50) (SARS-CoV-2 [6]): > 19.68
IC50 (SARS-CoV-2 [7]): 8.07 µM
CC50 at 48 h (in vitro [2]; African green monkey, Vero E6, post-infection treatment setting, 48 h, read-out: CC50): > 100 µM
CC50 at 48 h (in vitro [2]; African green monkey, Vero E6, pre-infection phase setting, read-out: CC50): > 100 µM
CC50 at 48 h (in vitro [2]; [20]): > 100 µM
IC50 (SARS-CoV-2 [3]; [17]): 0.282 µM
IC50 (SARS-CoV-2 [8]; Severe acute respiratory syndrome coronavirus 2, Vero C1008, pre-infection phase, read-out: IC50 (virus inhibition, high-content imaging)): 20.6 µM

CCCCCCCCC/C=C/C(=O)CCc1ccc(O)c(OC)c1 [MUC1775, 10-Shogaol]
%Inhibition at 10 µM (SARS-CoV-2 [4]; [19]): 5.7%

COc1cc(O)c(C(=O)[C@@H]2[C@H](CC=C(C)C)C(C)=CC[C@H]2c2ccccc2)c(O)c1 [Panduratin A]
SI (CC50/IC50) (SARS-CoV-2 [5]): 8.20
IC50 (SARS-CoV-2 [1]): 0.81 µM
SI (CC50/IC50) (SARS-CoV-2 [6]): 18.16
IC50 (SARS-CoV-2 [9]; Severe acute respiratory syndrome coronavirus 2, post-treatment, Calu-3, read-out: IC50 (plaque assay)): 0.53 µM
IC50 (SARS-CoV-2 [7]): 5.3 µM
CC50 at 48 h (in vitro [2]; [15]): 14.7 µM
CC50 at 48 h (in vitro [2]; [20]): 43.5 µM
IC50 (SARS-CoV-2 [3]; [17]): 0.078 µM
concentration with absolute inhibition of the infectious virion production (SARS-CoV-2 [3]): 5 µM
cytotoxicity at the therapeutic window (in words) [10]: no or minimal cytotoxicity
CC50 at 48 h [11]: 43.9 µM
IC50 (SARS-CoV-2 [12]; Severe acute respiratory syndrome coronavirus 2, Vero C1008, Vero E6): 7.62 µM
dose with absolute suppression of the infectious virion production (SARS-CoV-2 [12]; Vero E6, plaque assay): 50 µM
inhibition at 10 µM (SARS-CoV-2 [4]; [18]): 99.9%
%Inhibition at 10 µM (SARS-CoV-2 [4]; single dose 10 µM, Vero E6, SARS-CoV-2 25TCID50, listed as ECDD-NPA): 99.97%
IC50 (SARS-CoV-2 [13]; Severe acute respiratory syndrome coronavirus 2, post-treatment, Calu-3, read-out: IC50 (virus inhibition, high-content imaging/IFA)): 2.04 µM
antiviral effect (in words) (SARS-CoV-2 [8]; cells treated with extract/compound before viral adsorption): did not exerted a dramatic antiviral effect

CCC(CC)COC(=O)[C@H](C)N[P@](=O)(OC[C@H]1O[C@@](C#N)(c2ccc3c(N)ncnn23)[C@H](O)[C@@H]1O)Oc1ccccc1 [Remdesivir, reference compound]
IC50 (SARS-CoV-2 [1]): 2.71 µM
IC50 (SARS-CoV-2 [9]; Severe acute respiratory syndrome coronavirus 2, Calu-3, read-out: IC50 (plaque assay)): 0.086 µM
IC50 (SARS-CoV-2 [3]; [16]): 2.65 µM
IC50 (SARS-CoV-2 [13]; Severe acute respiratory syndrome coronavirus 2, Calu-3, read-out: IC50 (virus inhibition, high-content imaging/IFA)): 0.043 µM
CC50 (in vitro [14]): 16 µM

Ivermectin [reference compound]
IC50 (SARS-CoV-2 [6]; read-out: IC50 (virus inhibition, high-content imaging/IFA), post-infection treatment, Vero E6, 48 h): 12.7 µM
CC50 (Vero E6 cells): 31.7 µM
